Read-outs that look alike come from different tables or passages of the source.
How the values were obtained:
[1] = tested on: Yellow Fever (YFV); assay: microbe, parasite or virus in culture; assay type: cell-based, Yellow Fever virus; settings: read-out: YFV EC50
[2] = tested on: Dengue virus type 2 (DENV-2); assay: microbe, parasite or virus in culture; assay type: cell-based; settings: read-out: DENV-2 EC50
[3] = Yellow fever virus, BHK-21, 144 h

| SMILES | EC50 [1, 3] [µM] | EC50 ([2]; Dengue virus, DENV2, 144 h) [µM] | EC50 [1] [µM] | EC50 [2] [µM] |
| --- | --- | --- | --- | --- |
| C#C[C@@]1(F)[C@H](O)[C@@H](COP(=O)(N[C@@H](C)C(=O)OC(C)C)Oc2ccccc2)O[C@H]1n1cnc2c(N(C)C)nc(N)nc21 (mixture of isomers) [Compound 2, (2S)-Isopropyl 2-(((((2R,3R,4R,5R)-5-(2-amino-6-(dimethylamino)-9H-purin-9-yl)-4-ethynyl-4-fluoro-3-hydroxytetrahydrofuran-2-yl)methoxy)(phenoxy)phosphoryl)amino) propanoate] | 12.6 | 72.5 | – | – |
| C#C[C@@]1(F)[C@H](O)[C@@H](COP(=O)(N[C@@H](C)C(=O)OC(C)C)Oc2ccccc2)O[C@H]1n1cnc2c(NC)nc(N)nc21 (stereo partly drawn) [Compound 4, (2S)-Isopropyl 2-(((((2R,3R,4R,5R)-5-(2-amino-6-(methylamino)-9H-purin-9-yl)-4-ethynyl-4-fluoro-3-hydroxytetrahydrofuran-2-yl)methoxy)phenoxy)phosphoryl)-amino) Propanoate] | – | – | 7 | 612 |
| C#C[C@@]1(F)[C@H](O)[C@@H](COP(=O)(N[C@@H](C)C(=O)OC(C)C)Oc2ccccc2)O[C@H]1n1cnc2c(NC3CC3)nc(N)nc21 (stereo partly drawn) [Compound 6, (2S)-Isopropyl 2-(((((2R,3R,4R,5R)-5-(2-amino-6-(cyclopropylamino)-9H-purin-9-yl)-4-ethynyl-4-fluoro-3-hydroxytetrahydrofuran-2-yl)methoxy)phenoxy)phosphoryl)amino) propanoate] | – | – | – | 42 |
| CC(C)OC(=O)[C@H](C)N[P@](=O)(OC[C@H]1C(C)[C@@H](n2cnc3c(N)ncnc32)[C@H](O)[C@@H]1O)Oc1ccccc1 (stereo partly drawn) [Compound 204, (2S)-Isopropyl 2-(((S)-(((1R,3R,4S,5R)-3-(6-amino-9H-purin-9-yl)-4,5-dihydroxy-2-methylcyclopentyl)methoxy)(phenoxy)phosphoryl)amino)propanoate] | > 2.1 | > 2.1 | – | – |
| CNc1nc(N)nc2c1ncn2[C@@H]1O[C@H](CO[P@@](=O)(N[C@@H](C)C(=O)OC(C)C)Oc2ccccc2)[C@@H](O)[C@@]1(C)F [Compound 205, isopropyl ((((R,S)-(2R,3R,4R,5R)-5-(2-amino-6-(methylamino)-9H-purin-9-yl)-4-fluoro-3-hydroxy-4-methyltetrahydrofuran-2-yl)methoxy)-phenoxy-phosphoryl)-L-alaninate] | 1.2 | 0.8 | – | – |
| CC1[C@@H](n2cnc3c(N)ncnc32)[C@H](O)[C@H](O)[C@H]1CO (some centres unmarked) [Compound 206] | 2.3 | 1.83 | – | – |

— US10946033B2, “2′-substituted-N6-substituted purine nucleotides for RNA virus treatment” (priority 2016, dated 2021)
